Results published in patent publication US20250387359A1, “COMPOUNDS AND METHODS FOR THE TREATMENT OF PARASITIC INFECTIONS” (THE BOARD OF TRUSTEES OF THE UNIVERSITY OF ILLINOIS, priority 2019, published 2025).
Read-outs that look alike come from different tables or passages of the source.

What was measured:
[1] = target: T1, recombinant CpLDH protein (Cryptosporidium parvum, UniProt Q9GT92, F198L/K295E/R251K); assay: CpLDH enzyme kinetics on substrates and co-factors; type: biochemical; settings: for Km: pyruvate/NADH: reduction of pyruvate to lactate, lactate/NAD+: oxidation of lactate to pyruvate, 25° C.; for Kcat / Vmax: pyruvate/NADH: reduction, lactate/NAD+: oxidation
Method: (§1) Biochemical assays. The coding sequence of CpLDH was cloned from cDNA prepared from the AUCP-1 isolate of C. parvum, and the His-tagged CpLDH recombinant protein expressed in Escherichia coli, and purified in native form essentially as previously described (Int. J. Parasitol. 2017; 47(13), 867-874). Briefly, cDNA was prepared from total RNA extracted from the AUCP-1 isolate of C. parvum, and the coding sequencing of CpLDH (Genebank accession number AF274310.1) was PCR-amplified from the cDNA using a primer pair with a XhoI restriction site and a BamHI site. The PCR amplicon was cloned at the XhoI/BamHI site of the pET15b expression vector in-frame with the hexahistidine (His-tag) at the N-terminal and sequenced to confirm identity. The recombinant expression vector was transformed into protein expression E. coli BL21-CodonPlus-DE3-RIL (Stratagene). Transformed E. coli was cultured at 37° C. in Luria broth medium (supplemented with 100 μg/ml ampicillin and 34 μg/ml chloramphenicol) to an A600 of 0.8 followed by addition of 1 mM isopropyl-β-d-thiogalactopyranoside to induce protein expression. The expression E. coli was harvested and lysed under native conditions by sonicating in lysis buffer (50 mM NaH2PO4, 300 mM NaCl, 10 mM Imidazole, pH 8.0) containing a 1× EDTA-free protease inhibitor cocktail, 600 units benzonase and 30 kU lysozyme (EMD Millipore). The lysate was clarified by centrifugation and the His-tagged recombinant protein purified under native conditions by nickel-affinity chromatography according to the manufacturer's instructions (Novagen). The wash buffer used contained 50 mM NaH2PO4, 300 mM NaCl and 20 mM Imidazole, pH 8.0, while the elution buffer was composed of 50 mM NaH2PO4, 300 mM NaCl, 250 mM Imidazole, pH 8.0. The eluate was dialyzed using a buffer containing 5 mM Hepes-KOH (pH 7.8) and 0.5 mM DTT. The purity of the recombinant protein was determined by SDS/PAGE, and the concentration measured using a Qubit 3.0 fluorometer (Life technologies). […] On the other hand, the catalytic activity of CpLDH recombinant protein for the oxidation of lactate to pyruvate was determined by measuring the change in optical density of a 100 μl reaction mixture containing 100 mM lactate, 1 mM NAD^+, 100 mM Tris, pH 9.2, with varying concentrations of CpLDH recombinant protein at 25° C. […] In all assays, reaction mixtures without recombinant CpLDH protein were included as negative controls. All assays were performed in triplicate and repeated at least thrice. The change in optical density was measured every 15 seconds for a total of 2 minutes using a Spectra Max 384 Plus plate reader (Molecular Devices) at a wavelength of 340 nm.

[2] = target: T1, recombinant CpLDH protein; settings: reported by Zhang et al., PLoS Pathog. 2015; cited from earlier work
[3] = target: T1, recombinant CpLDH protein; assay: biochemical; type: biochemical; settings: 20 μM compound; 10 mM pyruvate, 1 mM NADH
Method: as §1
Screening compounds for inhibitory activity against CpLDH. The chemical compounds were obtained from the National Cancer Institute/Developmental Therapeutics Program Open Chemical Repository. They consisted of a diverse set of compounds (n=27) reported previously (Int J Parasitol Drugs Drug Resist. 2016; 6(1), 44-53), and a Mechanistic Set IV compounds (n=800). The compounds were reconstituted in dimethyl sulfoxide (DMSO) as stock solutions. Just before use, aliquots of the stock solutions were diluted in sterile distilled water to generate working solutions, such that the final amount of DMSO added to the reaction mixtures was less than 1% (V/V). The compounds were tested for their inhibitory effect against the enzymatic activity of recombinant His-tagged CpLDH for catalyzing the reduction of pyruvate to lactate. […] Control reactions without recombinant CpLDH protein were included. Reactions were performed in triplicate and repeated at least thrice. The change in optical density was measured every 15 seconds for a total of 2 minutes using a Spectra Max 384 Plus plate reader (Molecular Devices) at a wavelength of 340 nm.

[4] = tested on: HCT-8 cells; assay: Compound cytotoxicity assay (WST-1) in HCT-8 cells; type: cell-based, human
Method: Compound cytotoxicity assay. […] A colorimetric assay using the cell proliferation reagent WST-1 (Roche, USA) for the quantification of cell viability was performed. […] When the cells were confluent, the old medium was replaced with fresh medium with or without varying concentrations of chemical compound. After 24 h of culture, 10 μl of the cell proliferation reagent WST-1, (for quantification of cell viability) was added to each well, mixed and the plates incubated for 1 h at 37 C with 5% CO2 in the dark. […] Molecular Devices, USA).

T1 sequence (Q9GT92 whole entry F198L/K295E/R251K): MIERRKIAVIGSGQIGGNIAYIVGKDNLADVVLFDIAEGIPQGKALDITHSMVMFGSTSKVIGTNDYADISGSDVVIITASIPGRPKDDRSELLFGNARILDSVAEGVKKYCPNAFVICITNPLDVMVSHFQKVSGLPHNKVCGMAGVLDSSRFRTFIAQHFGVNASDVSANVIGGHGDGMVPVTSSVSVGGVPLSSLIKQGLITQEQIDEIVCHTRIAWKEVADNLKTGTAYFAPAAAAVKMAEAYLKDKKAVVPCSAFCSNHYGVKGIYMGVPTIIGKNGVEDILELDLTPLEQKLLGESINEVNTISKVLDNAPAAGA

NC(=O)c1ccc[n+]([C@@H]2O[C@H](COP(=O)([O-])OP(=O)(O)OC[C@H]3O[C@@H](n4cnc5c(N)ncnc54)[C@H](O)[C@@H]3O)[C@@H](O)[C@H]2O)c1 [NAD^+]
Km ([1]; read-out: Km): 56 µM | Kcat [1]: 0.11 s⁻¹ | Vmax [1]: 0.07 nmol⁻¹ µg⁻¹ min⁻¹ | Kcat [2]: (0.70)* s^−1 | Km [2]: 62 µM | Vmax [2]: (0.56)* nmol^−1 · μg^−1 · min^−1

CC(O)C(=O)O (stereo not shown) [Lactate, lactate]
Km ([1]; read-out: Km): 39600 µM | Kcat [1]: 0.07 s⁻¹ | Vmax [1]: 0.04 nmol⁻¹ µg⁻¹ min⁻¹ | Kcat [2]: (0.66)* s^−1 | Km [2]: 10800 µM | Vmax [2]: (0.53)* nmol^−1 · μg^−1 · min^−1

CC(=O)C(=O)O [Pyruvate, pyruvate]
Km [1]: 731 µM

Cc1ccc2c(sc(-c3ccc4c(c3)sc(-c3ccc(N(C)C)cc3)[n+]4C)[n+]2C)c1S(=O)(=O)[O-].[Cl-] [NSC71948]
effect on catalytic activity of recombinant CpLDH [3]: significant (P<0.05) inhibitory effect | IC50 [4]: 106 µM

NC(=O)C1=CN([C@@H]2O[C@H](COP(=O)(O)OP(=O)(O)OC[C@H]3O[C@@H](n4cnc5c(N)ncnc54)[C@H](O)[C@@H]3O)[C@@H](O)[C@H]2O)C=CC1 [NADH]
Km ([1]; read-out: Km): 734 µM | Vmax [1]: 6.29 nmol⁻¹ µg⁻¹ min⁻¹ | Kcat [2]: (11.70)* s^−1 | Km [2]: 92 µM | Vmax [2]: (9.33)* nmol^−1 · μg^−1 · min^−1

O=C([CH-]C(=O)C(F)(F)F)c1ccccc1.O=C([CH-]C(=O)C(F)(F)F)c1ccccc1.O=C([CH-]C(=O)C(F)(F)F)c1ccccc1.O=C([CH-]C(=O)C(F)(F)F)c1ccccc1.[Eu+3].c1ccncc1 [NSC253995]
effect on catalytic activity of recombinant CpLDH [3]: significant (P<0.05) inhibitory effect | IC50 [4]: 83 µM

[Cl][Cd][Cl] [NSC51148]
effect on catalytic activity of recombinant CpLDH [3]: significant (P<0.05) inhibitory effect | IC50 [4]: 39.6 µM

CN(C)C(=S)SSC(=S)N(C)C [NSC1771]
effect on catalytic activity of recombinant CpLDH [3]: significant (P<0.05) inhibitory effect | IC50 ([4]; HCT-8 cells, 24 h, WST-1, read-out: CYTOTOXICITY IC50): 110 µM

CC(O)CCC(=O)c1ccoc1 (stereo not shown) [NSC349438]
effect on catalytic activity of recombinant CpLDH [3]: significant (P<0.05) inhibitory effect | IC50 [4]: 93.9 µM
